Measurements as given in patent US9688683B2, “Substituted condensed pyrimidine compounds” (GRÜNENTHAL GMBH, priority 2013, dated 2017).

molecular target: human PDE4B1 (Homo sapiens (Human), UniProt Q07343); assay: cAMP HTRF assay to determine the activity of hPDE4B1; format: biochemical; conditions: inhibition of PDE4B at a test substrate concentration of 3 μM
Protocol: A: Determination of the PDE4B IC50 Values with a cAMP HRTF® Assay to Determine the Activity of hPDE4B1
The inhibiting effect of the compounds on the enzyme activity of human PDE4B1 is measured by the quantification of 5′-AMP, which is formed from 3′,5′-adenosine monophosphate (cAMP). Human recombinant enzyme, expressed in Sf9 cells, and the HTRF (homogeneous time-resolved fluorescence) detection method are used in the assay.
The test compound or water (control) is mixed with the human recombinant PDE4B1 enzyme (4.8 U) in a buffer consisting of 44.4 mM tris-HCl, 5.28 mM MgCl2, 2.64 mM DTT and 0.044% Tween 20 (pH 7.8). After adding the cAMP enzyme substrate (final concentration 40 nM) the mixture is incubated for 30 minutes at room temperature. Then a fluorescence acceptor (Dye2 marked with cAMP), a fluorescence donor (anti-cAMP antibody marked with a europium cryptate) and the non-specific phosphodiesterase inhibitor IBMX (3-isobutyl-1-methylxanthine; final concentration 1 mM) are added. After 60 minutes the fluorescence transfer, which correlates with the amount of remaining cAMP, is measured with a microplate reader (Rubystar, BMG) at λex=337 nm, λem=620 nm and λem=665 nm. The enzyme activity is calculated from the quotient formed from the measured signal at 665 nm and that at 620 nm. The result is expressed as the percentage inhibition of enzyme activity of the control (without PDE4 inhibitor) (literature: N. Saldou et al., Comparison of recombinant human PDE4 isoforms: interaction with substrate and inhibitors, Cell. Signal. Vol. 10, No. 6, 427-440, 1998). The enzyme is omitted for measurement of the basal control.

human PDE4B1, sequence (Q07343 whole entry): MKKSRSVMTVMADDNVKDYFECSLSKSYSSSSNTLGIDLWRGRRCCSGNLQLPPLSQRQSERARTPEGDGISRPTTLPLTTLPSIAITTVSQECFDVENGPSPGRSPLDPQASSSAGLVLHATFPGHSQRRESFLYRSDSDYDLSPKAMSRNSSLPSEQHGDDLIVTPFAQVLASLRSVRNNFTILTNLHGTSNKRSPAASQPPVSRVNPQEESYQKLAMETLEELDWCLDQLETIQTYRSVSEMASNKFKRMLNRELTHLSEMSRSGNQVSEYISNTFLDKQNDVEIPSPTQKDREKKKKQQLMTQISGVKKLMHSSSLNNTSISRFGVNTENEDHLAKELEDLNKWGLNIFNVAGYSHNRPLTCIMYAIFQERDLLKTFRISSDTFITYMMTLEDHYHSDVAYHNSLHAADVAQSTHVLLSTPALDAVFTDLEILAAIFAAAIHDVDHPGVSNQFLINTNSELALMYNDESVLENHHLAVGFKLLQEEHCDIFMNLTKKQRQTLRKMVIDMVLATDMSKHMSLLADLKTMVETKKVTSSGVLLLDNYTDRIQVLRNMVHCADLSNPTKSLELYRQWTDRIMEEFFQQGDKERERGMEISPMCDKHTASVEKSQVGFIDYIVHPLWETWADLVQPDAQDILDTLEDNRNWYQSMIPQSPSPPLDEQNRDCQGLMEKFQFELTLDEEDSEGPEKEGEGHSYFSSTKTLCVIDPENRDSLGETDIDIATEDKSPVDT

Structure (SMILES) | inhibition at 3 µM [%]
CCc1nc(-c2ccc3occc3c2)nc2c1CCN2c1ccc(C(=O)O)cc1 [Compound 84, 4-(2-(Benzofuran-5-yl)-4-ethyl-5H-pyrrolo[2,3-d]pyrimidin-7(6H)-yl)benzoic acid] | 45
CCc1nc(-c2ccc(OC)c(F)c2)nc2c1ccn2-c1cccc(OCC(=O)N(C)C)c1 [Compound 85, 2-(3-(4-Ethyl-2-(3-fluoro-4-methoxyphenyl)-7H-pyrrolo[2,3-d]pyrimidin-7-yl)phenoxy)-N,N-dimethylacetamide] | 43
CCc1nc(-c2ccc(F)c(OC)c2)nc2c1CCN2c1ccc(CC(=O)O)cc1 [Compound 86, 2-(4-(4-Ethyl-2-(4-fluoro-3-methoxyphenyl)-5H-pyrrolo[2,3-d]pyrimidin-7(6H)-yl)phenyl)acetic acid] | 47
CCc1nc(-c2ccc3c(c2)OCO3)nc2c1ccn2-c1cccc(OCC(=O)N(C)C)c1 [Compound 87, 2-(3-(2-(Benzo[d][1,3]dioxol-5-yl)-4-ethyl-7H-pyrrolo[2,3-d]pyrimidin-7-yl)phenoxy)-N,N-dimethylacetamide] | 52
CCc1nc(-c2ccc3ncsc3c2)nc2c1ccn2-c1cccc(OCC(=O)N(C)C)c1 [Compound 88, 2-(3-(2-(Benzo[d]thiazol-6-yl)-4-ethyl-7H-pyrrolo[2,3-d]pyrimidin-7-yl)phenoxy)-N,N-dimethylacetamide] | 51
CCc1nc(-c2ccc3occc3c2)nc2c1CCN2c1ccc(CC(=O)O)cc1 [Compound 89, 2-(4-(2-(Benzofuran-5-yl)-4-ethyl-5H-pyrrolo[2,3-d]pyrimidin-7(6H)-yl)phenyl)acetic acid] | 63
CCc1nc(-c2ccc(OC(F)F)cc2)nc2c1CCN2c1ccc(CC(=O)O)cc1 [Compound 90, 2-(4-(2-(4-(Difluoromethoxy)phenyl)-4-ethyl-5H-pyrrolo[2,3-d]pyrimidin-7(6H)-yl)phenyl)acetic acid] | 58
CCc1nc(-c2ccc(S(C)(=O)=O)cc2)nc2c1ccn2-c1cccc(OCC(=O)N(C)C)c1 [Compound 91, 2-(3-(4-Ethyl-2-(4-(methylsulfonyl)phenyl)-7H-pyrrolo[2,3-d]pyrimidin-7-yl)phenoxy)-N,N-dimethylacetamide] | 52
CCc1nc(-c2ccc(OC)c(Cl)c2)nc2c1ccn2-c1cccc(OCC(=O)N(C)C)c1 [Compound 92, 2-(3-(2-(3-Chloro-4-methoxyphenyl)-4-ethyl-7H-pyrrolo[2,3-d]pyrimidin-7-yl)phenoxy)-N,N-dimethylacetamide] | 67
CCc1nc(-c2ccc3ncsc3c2)nc2c1CCN2c1ccc(CC(=O)O)cc1 [Compound 93, 2-(4-(2-(Benzo[d]thiazol-6-yl)-4-ethyl-5H-pyrrolo[2,3-d]pyrimidin-7(6H)-yl)phenyl)acetic acid] | 57
CCc1nc(-c2ccc(OC)cc2)nc2c1ccn2-c1cccc(OCC(=O)N(C)C)c1 [Compound 94, 2-(3-(4-Ethyl-2-(4-methoxyphenyl)-7H-pyrrolo[2,3-d]pyrimidin-7-yl)phenoxy)-N,N-dimethylacetamide] | 54
CCOc1ccc(-c2nc(CC)c3ccn(-c4cccc(OCC(=O)N(C)C)c4)c3n2)cc1 [Compound 95, 2-(3-(2-(4-Ethoxyphenyl)-4-ethyl-7H-pyrrolo[2,3-d]pyrimidin-7-yl)phenoxy)-N,N-dimethylacetamide] | 41
CCOc1ccc(-c2nc(CC)c3c(n2)N(c2ccc(CC(=O)O)cc2)CC3)cc1 [Compound 96, 2-(4-(2-(4-Ethoxyphenyl)-4-ethyl-5H-pyrrolo[2,3-d]pyrimidin-7(6H)-yl)phenyl)acetic acid] | 39
CCc1nc(-c2cncnc2)nc2c1ccn2-c1cccc(OCC(=O)N(C)C)c1 [Compound 97, 2-(3-(4-Ethyl-2-(pyrimidin-5-yl)-7H-pyrrolo[2,3-d]pyrimidin-7-yl)phenoxy)-N,N-dimethylacetamide] | 67
CCOc1cccc(-c2nc(CC)c3c(n2)N(c2ccc(C(=O)O)cc2)CC3)c1 [Compound 98, 4-(2-(3-Ethoxyphenyl)-4-ethyl-5H-pyrrolo[2,3-d]pyrimidin-7(6H)-yl)benzoic acid] | 43
CCc1nc(-c2ccc(F)c(Cl)c2)nc2c1CCN2c1ccc(CC(=O)O)cc1 [Compound 99, 2-(4-(2-(3-Chloro-4-fluorophenyl)-4-ethyl-5H-pyrrolo[2,3-d]pyrimidin-7(6H)-yl)phenyl)acetic acid] | 54
